Read-outs that look alike come from different tables or passages of the source.
Assay: Pharmacokinetic evaluation in humans
Format: in vivo
Conditions: human; for CL renal: plasma and urine; for AUC(0-inf) / clearance / Cmax / Vd / half-life / AUC(0-t): plasma
Description: Plasma and urine RLip-EA-OH concentrations were measured at BASi, Inc. (West Lafayette, Ind.) using a LC/MS/MS method with positive turbo ion spray, in the multiple reaction-monitoring mode. The quantifiable range for human plasma was 1.00 to 500 ng/mL and QC samples were included at 3.00, 75.0 and 375 ng/mL.
The PK population included subjects who received RLip-EA-OH and had ≧1 post-dose PK measurement. […] Plasma samples from 24 subjects (6 RLip-EA-OH subjects per cohort) were analyzed (Tables 16 and 17).

C[C@H](NC(=O)[C@H](CCC(=O)O)NC(=O)CCCC[C@@H]1CCSS1)C(=O)O [RLip-EA-OH, N-(R)-lipoyl-L-glutamyl-L- alanine]
CL renal (20 mg, noncompartmental, read-out: Renal clearance, Mean (SD) (converted)): 168 mL/min
CL renal (20 mg, noncompartmental, read-out: Renal clearance, Median (converted)): 186 mL/min
CL renal (20 mg, noncompartmental, read-out: Renal clearance, Minimum, maximum): 80.8 to 255 mL/min
CL renal (60 mg, noncompartmental, read-out: Renal clearance, Mean (SD) (converted)): 181 mL/min
CL renal (60 mg, noncompartmental, read-out: Renal clearance, Median (converted)): 188 mL/min
CL renal (60 mg, noncompartmental, read-out: Renal clearance, Minimum, maximum): 135 to 220 mL/min
CL renal (150 mg, noncompartmental, read-out: Renal clearance, Mean (SD) (converted)): 124 mL/min
CL renal (150 mg, noncompartmental, read-out: Renal clearance, Median (converted)): 98 mL/min
CL renal (150 mg, noncompartmental, read-out: Renal clearance, Minimum, maximum): 58.5 to 243 mL/min
CL renal (300 mg, noncompartmental, read-out: Renal clearance, Mean (SD) (converted)): 141 mL/min
CL renal (300 mg, noncompartmental, read-out: Renal clearance, Median (converted)): 140 mL/min
CL renal (300 mg, noncompartmental, read-out: Renal clearance, Minimum, maximum): 85.2 to 200 mL/min
AUC(0-inf) (20 mg, compartmental, read-out: AUCinf, Mean (SD)): 621 ng·h/mL
AUC(0-inf) (20 mg, compartmental, read-out: AUCinf, Median): 614 ng·h/mL
AUC(0-inf) (20 mg, compartmental, read-out: AUCinf, Minimum, maximum): 474 to 787 ng·h/mL
clearance (20 mg, compartmental, read-out: CL, Mean (SD) (converted)): 557 mL/min
clearance (20 mg, compartmental, read-out: CL, Median (converted)): 545 mL/min
clearance (20 mg, compartmental, read-out: CL, Minimum, maximum): 423 to 703 mL/min
Cmax (20 mg, compartmental, read-out: Estimated Cmax, Mean (SD)): 2360 ng/mL
Cmax (20 mg, compartmental, read-out: Estimated Cmax, Median): 2480 ng/mL
Cmax (20 mg, compartmental, read-out: Estimated Cmax, Minimum, maximum): 1360 to 3340 ng/mL
Vd (20 mg, compartmental, read-out: Vss, Mean (SD)): 16 L
Vd (20 mg, compartmental, read-out: Vss, Median): 16 L
Vd (20 mg, compartmental, read-out: Vss, Minimum, maximum): 11 to 20 L
half-life (20 mg, compartmental, read-out: t1/2, Mean (SD) (converted)): 1 h
half-life (20 mg, compartmental, read-out: t1/2, Median (converted)): 0.8 h
half-life (20 mg, compartmental, read-out: t1/2, Minimum, maximum): 0.6 to 1.6 h
AUC(0-t) (20 mg, noncompartmental, read-out: AUC0-t, Mean (SD)): 581 ng·h/mL
AUC(0-t) (20 mg, noncompartmental, read-out: AUC0-t, Median): 556 ng·h/mL
AUC(0-t) (20 mg, noncompartmental, read-out: AUC0-t, Minimum, maximum): 466 to 717 ng·h/mL
AUC(0-inf) (20 mg, noncompartmental, read-out: AUCinf, Mean (SD)): 583 ng·h/mL
AUC(0-inf) (20 mg, noncompartmental, read-out: AUCinf, Median): 558 ng·h/mL
AUC(0-inf) (20 mg, noncompartmental, read-out: AUCinf, Minimum, maximum): 467 to 718 ng·h/mL
clearance (20 mg, noncompartmental, read-out: CL, Mean (SD) (converted)): 588 mL/min
clearance (20 mg, noncompartmental, read-out: CL, Median (converted)): 598 mL/min
clearance (20 mg, noncompartmental, read-out: CL, Minimum, maximum): 465 to 713 mL/min
Cmax (20 mg, noncompartmental, read-out: Cmax, Mean (SD)): 1830 ng/mL
Cmax (20 mg, noncompartmental, read-out: Cmax, Median): 1840 ng/mL
Cmax (20 mg, noncompartmental, read-out: Cmax, Minimum, maximum): 1220 to 2420 ng/mL
Vd (20 mg, noncompartmental, read-out: Vss, Mean (SD)): 18.5 L
Vd (20 mg, noncompartmental, read-out: Vss, Median): 18.7 L
Vd (20 mg, noncompartmental, read-out: Vss, Minimum, maximum): 14.4 to 22.4 L
half-life (20 mg, noncompartmental, read-out: t1/2, Mean (SD) (converted)): 0.86 h
half-life (20 mg, noncompartmental, read-out: t1/2, Median (converted)): 0.76 h
half-life (20 mg, noncompartmental, read-out: t1/2, Minimum, maximum): 0.61 to 1.41 h
clearance (20 mg, read-out: CL (converted)): 588 mL/min
AUC(0-inf) (60 mg, compartmental, read-out: AUCinf, Mean (SD)): 2260 ng·h/mL
AUC(0-inf) (60 mg, compartmental, read-out: AUCinf, Median): 1910 ng·h/mL
AUC(0-inf) (60 mg, compartmental, read-out: AUCinf, Minimum, maximum): 1770 to 3160 ng·h/mL
clearance (60 mg, compartmental, read-out: CL, Mean (SD) (converted)): 467 mL/min
clearance (60 mg, compartmental, read-out: CL, Median (converted)): 523 mL/min
clearance (60 mg, compartmental, read-out: CL, Minimum, maximum): 317 to 565 mL/min
Cmax (60 mg, compartmental, read-out: Estimated Cmax, Mean (SD)): 6870 ng/mL
Cmax (60 mg, compartmental, read-out: Estimated Cmax, Median): 6290 ng/mL
Cmax (60 mg, compartmental, read-out: Estimated Cmax, Minimum, maximum): 5520 to 9050 ng/mL
Vd (60 mg, compartmental, read-out: Vss, Mean (SD)): 14 L
Vd (60 mg, compartmental, read-out: Vss, Median): 15 L
Vd (60 mg, compartmental, read-out: Vss, Minimum, maximum): 10 to 17 L
half-life (60 mg, compartmental, read-out: t1/2, Mean (SD) (converted)): 1.5 h
half-life (60 mg, compartmental, read-out: t1/2, Median (converted)): 1.4 h
half-life (60 mg, compartmental, read-out: t1/2, Minimum, maximum): 1.1 to 2.6 h
AUC(0-t) (60 mg, noncompartmental, read-out: AUC0-t, Mean (SD)): 2250 ng·h/mL
AUC(0-t) (60 mg, noncompartmental, read-out: AUC0-t, Median): 1980 ng·h/mL
AUC(0-t) (60 mg, noncompartmental, read-out: AUC0-t, Minimum, maximum): 1720 to 3110 ng·h/mL
AUC(0-inf) (60 mg, noncompartmental, read-out: AUCinf, Mean (SD)): 2260 ng·h/mL
AUC(0-inf) (60 mg, noncompartmental, read-out: AUCinf, Median): 1980 ng·h/mL
AUC(0-inf) (60 mg, noncompartmental, read-out: AUCinf, Minimum, maximum): 1720 to 3110 ng·h/mL
clearance (60 mg, noncompartmental, read-out: CL, Mean (SD) (converted)): 467 mL/min
clearance (60 mg, noncompartmental, read-out: CL, Median (converted)): 505 mL/min
clearance (60 mg, noncompartmental, read-out: CL, Minimum, maximum): 322 to 582 mL/min
Cmax (60 mg, noncompartmental, read-out: Cmax, Mean (SD)): 6560 ng/mL
Cmax (60 mg, noncompartmental, read-out: Cmax, Median): 6840 ng/mL
Cmax (60 mg, noncompartmental, read-out: Cmax, Minimum, maximum): 5190 to 7990 ng/mL
Vd (60 mg, noncompartmental, read-out: Vss, Mean (SD)): 14.9 L
Vd (60 mg, noncompartmental, read-out: Vss, Median): 14.8 L
Vd (60 mg, noncompartmental, read-out: Vss, Minimum, maximum): 11.3 to 18.6 L
half-life (60 mg, noncompartmental, read-out: t1/2, Mean (SD) (converted)): 1.21 h
half-life (60 mg, noncompartmental, read-out: t1/2, Median (converted)): 1.26 h
half-life (60 mg, noncompartmental, read-out: t1/2, Minimum, maximum): 0.84 to 1.5 h
AUC(0-inf) (150 mg, compartmental, read-out: AUCinf, Mean (SD)): 7030 ng·h/mL
AUC(0-inf) (150 mg, compartmental, read-out: AUCinf, Median): 6920 ng·h/mL
AUC(0-inf) (150 mg, compartmental, read-out: AUCinf, Minimum, maximum): 4890 to 9610 ng·h/mL
clearance (150 mg, compartmental, read-out: CL, Mean (SD) (converted)): 370 mL/min

From patent publication US8772250B2, “Compositions and methods for treating ischemia and ischemia-reperfusion injury” (Ischemix, LLC, priority 2010, dated 2014)
